Data reported in ChEMBL document CHEMBL5725438, “Tetrazole derivatives and their use as potassium channel modulators” (2017).

Biological target: Intermediate conductance calcium-activated potassium channel protein 4 (Homo sapiens, UniProt O15554)
Assay: Inhibition Assay: Human HEK293 cells over-expressing human IK are grown in culture medium (DMEM supplemented with 10% foetal bovine serum), in polystyrene culture flasks ([…]) in a humidified atmosphere of 5% CO2 in air, at 37° C. Cell confluence should be 80-90% on day of plating. Cells are rinsed with 4 mL of PBS (phosphate buffered saline) and incubated 2 min with 1 mL of Trypsin-EDTA. After addition of 25 mL of culture medium cells are re-suspended by trituration with a 25 mL pipette.The cells are seeded at a density of 3×10^6 cells/mL (25 μL/well) in black-walled, clear bottom, 384-well plates pre-treated with 0.01 g/L poly-D-lysin (20 μL/well for ≧30 min). Plated cells were allowed to proliferate for 24 h before loading with dye.BTC-AM ([…], Invitrogen) is added 25.5 μl DMSO. The BTC-AM stock solution (2 mM) is diluted to a final concentration of 2 μM in Cl+ free assay buffer (in mM: 140 Na+-gluconate, 2.5 K+-gluconate, 6 Ca2+-gluconate, 1 Mg2+ gluconate, 5 glucose, 10 HEPES, pH 7.3) containing 2 μM ouabain, 2 mM amaranth and 1 mM tartrazine.The culture medium is aspirated from the wells, and 25 μl of the BTC-AM loading solution are added to each well. The cells are incubated at 37° C. for 60 min.After the loading period, the Tl+-sensitive BTC fluorescence signal is measured over time using a FLIPR.

Intermediate conductance calcium-activated potassium channel protein 4, sequence (O15554 whole entry): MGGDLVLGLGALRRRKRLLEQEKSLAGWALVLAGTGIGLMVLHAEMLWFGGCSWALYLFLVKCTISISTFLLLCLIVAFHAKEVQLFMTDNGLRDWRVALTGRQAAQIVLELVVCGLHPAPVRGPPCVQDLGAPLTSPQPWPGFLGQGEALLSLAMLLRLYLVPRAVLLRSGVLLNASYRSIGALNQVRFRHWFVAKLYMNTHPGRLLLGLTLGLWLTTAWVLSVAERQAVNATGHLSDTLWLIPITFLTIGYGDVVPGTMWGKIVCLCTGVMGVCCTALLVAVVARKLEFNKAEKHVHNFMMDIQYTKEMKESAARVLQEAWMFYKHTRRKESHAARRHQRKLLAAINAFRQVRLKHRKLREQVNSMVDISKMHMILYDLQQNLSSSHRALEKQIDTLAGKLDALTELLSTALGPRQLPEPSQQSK

IC50: 680 nM
Structure (SMILES): COCCNc1ccccc1-c1ccccc1-c1nnnn1-c1ccccc1F
